# According to patent publication US9775903B2, “1-deoxy analogs of 1,25-dihydroxyvitamin D3 compounds” (JOHNS HOPKINS UNIVERSITY, priority 2010, dated 2017):
# Assays:
# [1] = test system: CYP24 transcription in HPK1a-ras cells; test: CYP24 transcription in HPK1a-ras cells (real-time PCR); assay type: cell-based, human; conditions: for concentration at which significant transcriptional activity (CYP24) is displayed / CYP24 transcription activity (in words): HPK1a-ras cells; for concentration at which significant transcriptional activity (CYP24) is displayed: 6 hr; for CYP24 transcription activity (in words): which express CYP27B1; for induction of CYP24 transcription compared to vehicle: 6 or 7 hours
# Experimental: (§1) HPK1a-ras cells were maintained in Dulbecco's Modified Eagle's medium (DMEM) supplemented with 10% Fetal Bovine Serum and plated at 1×10^5 cells/well in 24-well plates. The media was exchanged after 24 hours for DMEM containing 1% Bovine Serum Albumin. Cells were treated in duplicate with Ibii and control compounds at various concentrations (10^−6 to 10^−9M) for 6 or 7 hours. Extraction of cellular RNA was performed using Trizol® (Invitrogen). Aliquots of RNA were reverse-transcribed to cDNA using random hexamers and Thermoscript reverse transcriptase according to the manufacturer's instructions (Invitrogen). Quantitative real-time PCR was performed using an ABI StepOnePlus system using the Taqman Universal PCR Master Mix. PCR reaction volumes of 20 μL were used with 50 cycles of amplification. Each cDNA sample was tested in duplicate using TaqMan® gene expression assays with the following ID numbers: human GAPDH (Hs99999905_m1), human CYP24 (Hs00167999_m1). The real-time PCR results were analyzed using the StepOne system software V2.1. Gene expression levels were calculated using the comparative CT method, and normalized to the GAPDH expression levels.
# (§2) CYP24a1 transcription activity in HPK1a-ras cells was determined for prodrugs Iaii and IIaii. As with the protocol described in Example 7, HPK1a-ras cells were maintained in Dulbecco's Modified Eagle's medium (DMEM) supplemented with 10% Fetal Bovine Serum and plated at 1×10^5 cells/well in 24-well plates. Prior to treatment with compounds, cells were washed with PBS and replaced with DMEM containing 1% Bovine Serum Albumin. Cells were treated in duplicate with vehicle or compounds at various concentrations (10^-6 to 10^-9 M) for 6 hr at 37° C. Media was removed and extraction of cellular RNA was performed using Trizol® (Invitrogen). Aliquots of RNA were reverse-transcribed to cDNA using oligo dT primers and Thermoscript reverse transcriptase according to the manufacturer's instructions (Invitrogen). Quantitative real-time PCR was performed using an ABI StepOnePlus system using the Taqman Universal PCR Master Mix. PCR reaction volumes of 20 μl were used with 50 cycles of amplification. Each cDNA sample was tested in duplicate using TaqMan® gene expression assays with the following ID numbers: human GAPDH (Hs99999905_m1), human CYP24 (Hs00167999_m1). The real-time PCR results were analyzed using the StepOne system software V2.1. Gene expression levels were calculated using the comparative CT method, and normalized to the GAPDH expression levels
# VDR [2] = target: T1, VDR (Homo sapiens, UniProt P11473); test: Binding to the Vitamin D Receptor (competition with [26,27-methyl-3H]-1α,25(OH)2D3)
# T1 sequence (P11473 1-427): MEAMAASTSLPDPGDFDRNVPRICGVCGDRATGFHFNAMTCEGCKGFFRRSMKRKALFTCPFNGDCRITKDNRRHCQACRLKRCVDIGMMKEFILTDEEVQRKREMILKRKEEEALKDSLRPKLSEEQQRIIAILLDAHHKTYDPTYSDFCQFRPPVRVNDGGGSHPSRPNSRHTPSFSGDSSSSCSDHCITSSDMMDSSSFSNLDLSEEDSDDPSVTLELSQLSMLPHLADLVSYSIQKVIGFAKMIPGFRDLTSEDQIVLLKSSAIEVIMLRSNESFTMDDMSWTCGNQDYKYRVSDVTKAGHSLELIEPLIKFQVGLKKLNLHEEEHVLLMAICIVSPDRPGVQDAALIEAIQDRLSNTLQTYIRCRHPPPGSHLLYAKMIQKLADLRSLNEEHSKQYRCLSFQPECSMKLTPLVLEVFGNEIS
# Experimental: Unbound radioactive ligand was removed by incubation with dextran-charcoal for 30 min on ice and pelleted by centrifugation at 2000 rpm for 10 min at 4° C. The radioactivity in 100 mL of the supernatant was measured using a scintillation counter. The control reactions contained either no VDR protein (background) or no competing ligand (maximum binding). The mean background binding was subtracted and the data divided by the mean maximum binding to yield B/Bmax values. The concentration necessary to displace 50% of [26,27-methyl-^3H]-1α,25(OH)2D3 from VDR was calculated as the B50.
# [3] = test system: CYP24 expression in PMA-stimulated U937 cells; test: CYP24 expression in PMA-stimulated U937 cells, which do not substantially express CYP27B1; assay type: cell-based, human; conditions: concentrations up to 100 nM, 6 hr
# Experimental: PMA-stimulated U937 cells were maintained in RPMI media supplemented with 10 mM HEPES, 1 mM sodium pyruvate, 0.1 mM non-essential amino acids and 10% Fetal Bovine Serum at optimal cell density (between 1×10^5 cells/mL and 2×10^6 cells/mL). Prior to treatment, cells were pelleted by centrifugation and resuspended to a concentration of 5×10^5 cells/mL. Cells were then treated with phorbol myristate acetate (PMA) at a final concentration of 20 ng/ml. To each well of a 24-well plate, 1 ml of cell suspension was added, which was incubated overnight at 37° C.+5% CO2. The following day, RPMI media was replaced with fresh media and cells were treated in triplicate with vehicle or compounds at various concentrations (10^-7 to 10^-9 M) for 6 hr at 37° C. Media was removed and extraction of cellular RNA was performed using Trizol® (Invitrogen). Aliquots of RNA were reverse-transcribed to cDNA using oligo dT primers and Thermoscript reverse transcriptase according to the manufacturer's instructions (Invitrogen). Quantitative real-time PCR was performed using an ABI StepOnePlus system using the Taqman Universal PCR Master Mix. PCR reaction volumes of 20 μl were used with 50 cycles of amplification. Each cDNA sample was tested in duplicate using TaqMan® gene expression assays with the following ID numbers: human GAPDH (Hs99999905_m1), human CYP24 (Hs00167999_m1). The real-time PCR results were analyzed using the StepOne system software V2.1. Gene expression levels were calculated using the comparative CT method, and normalized to the GAPDH expression levels. The U937 cells have a low level of expression of CYP27B1 mRNA, for example compared to HPK1a-ras cells.
# FGF23 = test: Serum FGF23 in adenine-induced uremic rats; assay type: in vivo, male Sprague-Dawley rats; conditions: adenine treated rats, i.v. 0.2-10 mcg/kg, three times per week for two weeks
# From the text: (§3) Day 0 is the first day of dosing.
# [4] = test system: CYP27b1 transcription in HPK1a-ras cells; test: CYP27b1 transcription in HPK1a-ras cells (real-time PCR); assay type: cell-based, human
# Experimental: as §1, with “duplicate.” for “duplicate using TaqMan® gene expression assays with the following ID numbers: human GAPDH (Hs99999905_m1), human CYP24 (Hs00167999_m1).”
# PTH [5] = test: Serum PTH in adenine-induced uremic rats; assay type: in vivo, male Sprague-Dawley rats; conditions: adenine treated rats
# From the text: as §3
# PTH [6] = test: PTH in vitamin D deficient rats, IV and oral dosing; assay type: in vivo, Sprague Dawley rats; conditions: 160 μg/kg, 3×/week for five days
# Experimental: (§4) Vitamin D deficient Sprague Dawley rats were treated with Ibii 3×/week for five days by IV and oral routes, according to the Table below: […]
# [7] = Body weight in vitamin D deficient rats; assay type: in vivo, Sprague Dawley rats; conditions: IV and oral, 160 μg/kg
# Experimental: as §4
# CYP24 = target: T2, CYP24 (Homo sapiens, UniProt Q07973); test: CYP24 inhibitory activity: CYP24a1 transcription in HPK1a-ras cells treated with calcitriol plus test compound; assay type: cell-based; conditions: 1 μM analog with 0.1 nM or 1 nM calcitriol, 6 hours
# T2 construct: CYP24a1 relative transcription in HPK1a-ras cells treated for 6 hours with calcitriol; endogenous in cells; host or cells: HPK1a-ras cells
# T2 sequence (Q07973 36-514): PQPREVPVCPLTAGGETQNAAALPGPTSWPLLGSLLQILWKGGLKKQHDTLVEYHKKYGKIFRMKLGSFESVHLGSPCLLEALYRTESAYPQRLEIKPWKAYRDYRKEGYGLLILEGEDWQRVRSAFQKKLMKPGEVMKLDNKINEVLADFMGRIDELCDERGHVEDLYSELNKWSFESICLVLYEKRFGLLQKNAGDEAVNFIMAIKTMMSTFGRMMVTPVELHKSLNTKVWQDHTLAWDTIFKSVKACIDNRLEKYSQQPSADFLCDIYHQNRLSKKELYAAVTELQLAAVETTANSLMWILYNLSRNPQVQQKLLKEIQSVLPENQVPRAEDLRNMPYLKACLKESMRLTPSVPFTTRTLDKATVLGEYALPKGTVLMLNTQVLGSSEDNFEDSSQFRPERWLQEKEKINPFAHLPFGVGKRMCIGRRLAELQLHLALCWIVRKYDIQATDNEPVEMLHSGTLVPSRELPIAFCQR
# Experimental: as §2, with “Aliquots of RNA were reverse-transcribed to cDNA using oligo dT primers and Thermoscript reverse transcriptase according to the manufacturer's instructions (Invitrogen).” left out, “PCR reaction volumes of 20 μl were used with 50 cycles of amplification. Each cDNA sample was tested in duplicate using TaqMan® gene expression assays with the following ID numbers: human GAPDH (Hs99999905_m1), human CYP24 (Hs00167999_m1).” left out
# Transcriptional activity of calcitriol and Prodrugs was determined by CYP24a1 relative transcription in HPK1a-ras cells treated for 6 hours with calcitriol, combinations of calcitriol with Prodrugs Icii, Idii, and Ieii, and combinations of calcitriol with 1-hydroxylated active forms of Prodrugs Icii, Idii, and Ieii which are known CYP24 inhibitors.
# VDR [8] = target: T1, VDR; conditions: relative to active Vitamin D hormones / 1,25-hydroxyvitamin D3; cited from earlier work
SMILES,concentration at which significant transcriptional activity (CYP24) is displayed [1] [nM],CYP24 transcription activity (in words) [1],binding to the VDR (in words) (VDR [2]),relative CYP24 expression (compared to calcitriol) [3],CYP24 inhibitory effect (increased CYP24a1 transcription with calcitriol) (CYP24),further results
"C=C1CCC(O)CC1=CC=C1CCCC2(C)C1CCC2C(C)CCC(F)(F)S(=O)(=O)C(C)(C)C (stereo not drawn) [Prodrug Iaii, 3-(2-{1-[4,4-Difluoro-1-methyl-4-(2-methyl-propane-2-sulfonyl)-butyl]-7α-methyl-3,3α,5,6,7,7a-hexahydro-inden-4-ylidene}-ethylidene)-4-methylene-cyclohexanol]",1000,active,do not bind to the VDR,inactive,,
"C=C1CCC(O)CC1=CC=C1CCCC2(C)C(C(C)CC=CS(=O)(=O)C(C)(C)C)=CCC12 (stereo not drawn) [Prodrug Ibii, 4-Methylene-3-(2-{7α-methyl-1-[1-methyl-4-(2-methyl-propane-2-sulfonyl)-but-3-enyl]-3,3α,5,6,7,7a-hexahydro-inden-4-ylidene}-ethylidene)-cyclohexanol]",100,,,inactive,,"effect on serum FGF23 levels (FGF23): does not increase serum FGF23 levels; induction of CYP24 transcription compared to vehicle ([1]; 100 nM, HPK1aRas cells): about 100 fold; induction of CYP24 transcription compared to vehicle ([1]; 1 μM, HPK1aRas cells): about 500 fold; potency in CYP24 transcription relative to its 1-hydroxylated analog ([1]; HPK1aRas cells): about 1/100; induction of CYP24A1 transcription at lower concentrations ([1]; concentrations below 100 nM, HPK1aRas cells): did not significantly induce; transcription of CYP27b1 compared to vehicle [4]: not significantly affected; IC50 (VDR [2]; read-out: B50 (concentration necessary to displace 50% of [26,27-methyl-3H]-1α,25(OH)2D3 from VDR), in vitro, human recombinant VDR): > 1000 nM; potency in decreasing circulating iPTH levels versus the 1-hydroxy active form (PTH [5]; i.v.): comparable to but lower than the 1-hydroxy active form; circulating iPTH levels in serum (PTH [5]; i.v. 0.2-10 mcg/kg, three times per week for two weeks): can lower circulating iPTH levels; effect on PTH (PTH [6]; intravenous): can effectively lower PTH; effect on PTH (PTH [6]; oral): can effectively lower PTH; effects on body weight (overt toxicity) [7]: does not exhibit overt toxicity"
"C=C1CCC(O)CC1=CC=C1CCCC2(C)C1CCC2C(C)CCCS(=N)(=O)c1ccccc1 (stereo not drawn) [Prodrug Icii, 3-{2-[1-(4-Benzenesulfoximine-1-methyl-butyl)-7α-methyl-octahydro-inden-4-ylidene]-ethylidene}-4-methylene-cyclohexanol]",,,,inactive,CYP24 inhibitory effect,
"C=C1CCC(O)CC1=CC=C1CCCC2(C)C1CCC2C(C)CCS(=O)(=O)c1ccccc1 (stereo not drawn) [Prodrug Idii, 3-{2-[1-(3-Benzenesulfonyl-1-methyl-propyl)-7α-methyl-octahydro-inden-4-ylidene]-ethylidene}-4-methylene-cyclohexanol]",,,,inactive,CYP24 inhibitory effect,
"C=CCO/N=C(\CCC[C@@H](C)C1=CC[C@H]2/C(=C/C=C3/C[C@@H](O)CCC3=C)CCC[C@]12C)C(C)(C)C [Prodrug IIaii, 7-{4-[2-(5-Hydroxy-2-methylene-cyclohexylidene)-ethylidene]-7α-methyl-3α,4,5,6,7,7a-hexahydro-3H-inden-1-yl}-2,2-dimethyl-octan-3-one 0-allyl-oxime]",1000,active,do not bind to the VDR,inactive,,
C=C1CC[C@H](O)C/C1=C/C=C1\CCC[C@]2(C)C([C@H](C)CCCC(C)(C)O)CC[C@@H]12 (stereo partly drawn) [25-hydroxyvitamin D3],,,,,,"affinity for the VDR, fold lower than the active Vitamin D hormone (VDR [8]): 100 fold"
